Experimental data reported in the supplement of paper PMC4862054.

Key:
Conditions in all cases: incubation time: 72 h
MDA-MB-231 [1] = experiment: normalised response (% of control), CellTiter-Glo; higher = more viable cells (100 = DMSO, 0 = benzethonium chloride kill control)
Outline: (§1)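 For each plate, 0.1 % DMSO was set to 100 and a positive kill control to 0. Breast cancer cell lines (20 µl suspension) were seeded into 384-well plates already holding compound at 5 concentrations in 10-fold steps over a 10,000-fold range chosen per compound, and incubated for 72 h. CellTox Green fluorescence at 485/520 nm was read before CellTiter-Glo luminescence, which followed 10 min at room temperature. Each value is the normalised signal at one concentration.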

BT-549 [2] = experiment: as above
Outline: as §1

BT-474 [3] = experiment: as above
Outline: as §1

DU-4475 [4] = experiment: as above
Outline: as §1

Hs578T [5] = experiment: as above
Outline: as §1

MFM-223 [6] = experiment: as above
Outline: as §1

SK-BR-3 [7] = experiment: as above
Outline: as §1

CAL-120 [8] = experiment: as above
Outline: as §1

MDA-MB-436 [9] = experiment: as above
Outline: as §1

HCC1143 [10] = experiment: as above
Outline: as §1

CAL-148 [11] = experiment: as above
Outline: as §1

HCC1599 [12] = experiment: as above
Outline: as §1

CAL-85-1 [13] = experiment: as above
Outline: as §1

MCF-10A = experiment: as above
Outline: as §1

MDA-MB-453 [14] = experiment: as above
Outline: as §1

MDA-MB-468 [15] = experiment: as above
Outline: as §1

HDQ-P1 [16] = experiment: as above
Outline: as §1

CAL-51 [17] = experiment: as above
Outline: as §1

HCC1937 [18] = experiment: as above
Outline: as §1

MDA-MB-231 [19] = experiment: normalised viability (% of control), CellTiter-Blue; higher = more viable cells (100 = DMSO, 0 = benzethonium chloride kill control)
Outline: (§2)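 Each value is normalised viability at a single listed concentration of the series. Breast cancer cell lines in 384-well plates were incubated 72 h with compound and read by CellTiter-Blue fluorescence at 560/590 nm, with vehicle set to 100 and a positive kill control to 0 on every plate.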

BT-549 [20] = experiment: as above
Outline: as §2

BT-474 [21] = experiment: as above
Outline: as §2

DU-4475 [22] = experiment: as above
Outline: as §2

Hs578T [23] = experiment: as above
Outline: as §2

MFM-223 [24] = experiment: as above
Outline: as §2

SK-BR-3 [25] = experiment: as above
Outline: as §2

CAL-120 [26] = experiment: as above
Outline: as §2

MDA-MB-436 [27] = experiment: as above
Outline: as §2

HCC1143 [28] = experiment: as above
Outline: as §2

CAL-148 [29] = experiment: as above
Outline: as §2

HCC1599 [30] = experiment: as above
Outline: as §2

CAL-85-1 [31] = experiment: as above
Outline: as §2

MDA-MB-453 [32] = experiment: as above
Outline: as §2

MDA-MB-468 [33] = experiment: as above
Outline: as §2

HDQ-P1 [34] = experiment: as above
Outline: as §2

CAL-51 [35] = experiment: as above
Outline: as §2

HCC1937 [36] = experiment: as above
Outline: as §2

| SMILES | normalised response (MDA-MB-231 [1]) [%] | normalised response (BT-549 [2]) [%] | normalised response (BT-474 [3]) [%] | normalised response (DU-4475 [4]) [%] | normalised response (Hs578T [5]) [%] | normalised response (MFM-223 [6]) [%] | normalised response (SK-BR-3 [7]) [%] | normalised response (CAL-120 [8]) [%] | normalised response (MDA-MB-436 [9]) [%] | normalised response (HCC1143 [10]) [%] | normalised response (CAL-148 [11]) [%] | normalised response (HCC1599 [12]) [%] | normalised response (CAL-85-1 [13]) [%] | normalised response (MCF-10A) [%] | normalised response (MDA-MB-453 [14]) [%] | normalised response (MDA-MB-468 [15]) [%] | normalised response (HDQ-P1 [16]) [%] | normalised response (CAL-51 [17]) [%] | normalised response (HCC1937 [18]) [%] | normalised viability (MDA-MB-231 [19]) [%] | normalised viability (BT-549 [20]) [%] | normalised viability (BT-474 [21]) [%] | normalised viability (DU-4475 [22]) [%] | normalised viability (Hs578T [23]) [%] | normalised viability (MFM-223 [24]) [%] | normalised viability (SK-BR-3 [25]) [%] | normalised viability (CAL-120 [26]) [%] | normalised viability (MDA-MB-436 [27]) [%] | normalised viability (HCC1143 [28]) [%] | normalised viability (CAL-148 [29]) [%] | normalised viability (HCC1599 [30]) [%] | normalised viability (CAL-85-1 [31]) [%] | normalised viability (MDA-MB-453 [32]) [%] | normalised viability (MDA-MB-468 [33]) [%] | normalised viability (HDQ-P1 [34]) [%] | normalised viability (CAL-51 [35]) [%] | normalised viability (HCC1937 [36]) [%] |
| --- | --- | --- | --- | --- | --- | --- | --- | --- | --- | --- | --- | --- | --- | --- | --- | --- | --- | --- | --- | --- | --- | --- | --- | --- | --- | --- | --- | --- | --- | --- | --- | --- | --- | --- | --- | --- | --- |
| C=CCNC1=C2C[C@@H](C)C[C@H](OC)[C@H](O)[C@@H](C)/C=C(\C)[C@H](OC(N)=O)[C@@H](OC)/C=C\C=C(/C)C(=O)NC(=CC1=O)C2=O [Tanespimycin] (1 nM) | 98.9 | 105 | 91.9 | 99 | 104 | 94 | 96.8 | 92.5 | 86.8 | 95.8 | 92.6 | 102 | 107 | 99.1 | 104 | 107 | 99.4 | 104 | 94.7 | 98.2 | 113 | 97.3 | 118 | 101 | 90.8 | 93 | 77.1 | 110 | 87.4 | 115 | 94.7 | 92.6 | 108 | 103 | 105 | 115 | 86.4 |
| C[C@]1(c2nc3c(C(N)=O)cccc3[nH]2)CCCN1 [Veliparib] (1 nM) | 102 | 104 | 107 | 106 | 101 | 101 | 102 | 97.3 | 91.4 | 101 | 103 | 96.4 | 111 | 97 | 109 | 111 | 101 | 92.2 | 96.8 | 94.3 | 112 | 89.8 | 99 | 94.8 | 94.1 | 96.9 | 68.6 | 93.7 | 79.1 | 101 | 83.5 | 78.4 | 93.3 | 97.7 | 75.1 | 112 | 77.1 |
| CC[C@]1(O)C[C@@H]2CN(CCc3c([nH]c4ccccc34)[C@@](C(=O)OC)(c3cc4c(cc3OC)N(C)[C@H]3[C@@](O)(C(=O)OC)[C@H](OC(C)=O)[C@]5(CC)C=CCN6CC[C@]43[C@@H]65)C2)C1 [Vinblastine] (0.1 nM) | 94.9 | 102 | 96.2 | 101 | 99.5 | 93.1 | 100 | 95.9 | 95.8 | 99 | 96.6 | 106 | 97.4 | 101 | 103 | 98.8 | 99.4 | 103 | 93.9 | 83.1 | 96.6 | 87.9 | 104 | 103 | 90 | 85.8 | 82.1 | 103 | 78.6 | 92.5 | 90.7 | 85.8 | 98.5 | 98.8 | 102 | 114 | 97.1 |
| CS(=O)(=O)c1ccc(C(=O)Nc2ccc(Cl)c(-c3ccccn3)c2)c(Cl)c1 [Vismodegib] (1 nM) | 95.5 | 93.1 | 90.9 | 98.9 | 95.9 | 86.8 | 91.6 | 92.8 | 100 | 94.3 | 103 | 101 | 99.2 | 94 | 89.3 | 98.7 | 96.7 | 120 | 92.3 | 100 | 88.3 | 103 | 103 | 115 | 96 | 93.7 | 86.2 | 94.2 | 94.9 | 94.9 | 105 | 104 | 103 | 99.6 | 75.3 | 108 | 103 |
